Measurements published in publication PMC7016952, “Characterization of the Menin-MLL Interaction as Therapeutic Cancer Target” (Cancers, 2020).

Key:
[1] = tested on: AR signaling pathway genes in VCaP tumor samples; assay: Ex vivo gene expression in VCaP xenografts; parameters: species or system mice; settings: 52 days of treatment
Protocol: (§1) Total RNA was isolated using RNeasy-Plus Mini kit (Qiagen, Hilden, Germany). RNA (1 μg) was reverse transcribed using SuperScript III First-Strand Synthesis SuperMix (Life Technologies) and the generated cDNA was analyzed with commercial primers (Supplementary Materials Table S1) by qRT-PCR using TaqMan Fast Advanced Master Mix (Life Technologies). For the RNA-seq study, ZR-75-1, BT474, PANC-1, MiaPaCa-2, 22RV1, JMSU-1, DLD-1, SW1463, LoVo and G401 cells were treated with 5 µM BAY-155 or DMSO for 48 h prior to RNA extraction. After 48 h of 5 µM BAY-155 or DMSO treatment, MCF7, VCaP and LNCaP cells were stimulated for further 12 h with 0.1 nM of E2 (ß-Estradiol) or 1 nM R1881, respectively. MCF7, VCaP and LNCaP cells were cultured in starvation medium (containing 5 µM BAY-155 or DMSO) 6 h before stimulation. RNA was isolated using RNeasy-Plus Mini kit (Qiagen). The purified RNA was used for library preparation (Illumina, San Diego, CA, USA. TruSeq Stranded mRNA Kit) and the generated libraries were sequenced (Illumina, HiSeq2500 HTv4, SR, dual-indexing, 50 cycles).
Tumors were harvested, dissociated and total RNA was extracted using the TissueLyser (Qiagen, Hilden, Germany) together with RNeasy-Plus Mini kit according to the manufacturer protocol.

[2] = tested on: safety pharmacology relevant proteins (GPCRs, ion channels and transporters); assay: Selectivity panel of safety pharmacology assays; settings: 10 µM
[3] = tested on: MEIS1, MNDA and CD11b expression in MV4;11 and MOLM-13 cells; assay: qRT-PCR of hematopoietic differentiation genes; type: cell-based, human; settings: four days of treatment, in comparison to MI-503
Protocol: as §1

[4] = cited from earlier work
menin-MLL interaction [5] = biological target: T1, menin-MLL interaction (Homo sapiens, UniProt O00255); assay: TR-FRET menin-MLL binding assay; settings: BAY-155 vs MI-503
T1 construct: recombinant full length, His-tagged menin
T1 sequence (O00255 1-610): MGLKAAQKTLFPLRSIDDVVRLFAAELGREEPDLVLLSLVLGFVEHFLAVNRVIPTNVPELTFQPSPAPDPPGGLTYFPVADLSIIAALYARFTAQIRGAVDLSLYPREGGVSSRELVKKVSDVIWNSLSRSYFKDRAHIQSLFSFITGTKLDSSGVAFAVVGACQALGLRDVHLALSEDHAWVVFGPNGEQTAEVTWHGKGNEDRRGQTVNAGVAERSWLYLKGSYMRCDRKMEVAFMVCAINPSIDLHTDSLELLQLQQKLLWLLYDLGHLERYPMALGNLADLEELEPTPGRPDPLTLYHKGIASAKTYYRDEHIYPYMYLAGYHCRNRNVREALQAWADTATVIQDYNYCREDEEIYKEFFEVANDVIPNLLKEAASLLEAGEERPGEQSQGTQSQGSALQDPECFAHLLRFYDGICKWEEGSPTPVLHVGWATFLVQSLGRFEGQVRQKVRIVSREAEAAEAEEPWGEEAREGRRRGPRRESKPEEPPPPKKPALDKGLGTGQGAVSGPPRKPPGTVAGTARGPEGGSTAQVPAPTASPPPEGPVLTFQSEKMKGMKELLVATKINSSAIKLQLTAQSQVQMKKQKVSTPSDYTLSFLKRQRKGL

CYP 1A2 = CYP 1A2 (Homo sapiens, UniProt P05177); settings: cited from earlier work
Chain of CYP 1A2 (P05177 whole entry): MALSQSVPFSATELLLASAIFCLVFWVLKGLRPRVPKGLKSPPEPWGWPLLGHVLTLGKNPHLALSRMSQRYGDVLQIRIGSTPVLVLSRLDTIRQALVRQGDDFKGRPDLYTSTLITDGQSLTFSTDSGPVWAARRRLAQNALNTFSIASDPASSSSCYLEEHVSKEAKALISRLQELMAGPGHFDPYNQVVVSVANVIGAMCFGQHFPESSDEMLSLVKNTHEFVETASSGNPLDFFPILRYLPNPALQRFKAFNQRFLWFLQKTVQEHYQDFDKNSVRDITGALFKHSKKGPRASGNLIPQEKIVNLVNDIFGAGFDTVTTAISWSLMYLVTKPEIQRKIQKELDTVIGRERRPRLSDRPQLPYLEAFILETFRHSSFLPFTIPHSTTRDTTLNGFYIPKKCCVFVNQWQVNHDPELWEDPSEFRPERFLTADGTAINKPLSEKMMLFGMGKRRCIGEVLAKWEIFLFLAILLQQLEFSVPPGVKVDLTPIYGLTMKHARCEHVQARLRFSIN

CYP 3A4 = CYP 3A4 (Homo sapiens, UniProt P08684); settings: cited from earlier work
Chain of CYP 3A4 (P08684 whole entry): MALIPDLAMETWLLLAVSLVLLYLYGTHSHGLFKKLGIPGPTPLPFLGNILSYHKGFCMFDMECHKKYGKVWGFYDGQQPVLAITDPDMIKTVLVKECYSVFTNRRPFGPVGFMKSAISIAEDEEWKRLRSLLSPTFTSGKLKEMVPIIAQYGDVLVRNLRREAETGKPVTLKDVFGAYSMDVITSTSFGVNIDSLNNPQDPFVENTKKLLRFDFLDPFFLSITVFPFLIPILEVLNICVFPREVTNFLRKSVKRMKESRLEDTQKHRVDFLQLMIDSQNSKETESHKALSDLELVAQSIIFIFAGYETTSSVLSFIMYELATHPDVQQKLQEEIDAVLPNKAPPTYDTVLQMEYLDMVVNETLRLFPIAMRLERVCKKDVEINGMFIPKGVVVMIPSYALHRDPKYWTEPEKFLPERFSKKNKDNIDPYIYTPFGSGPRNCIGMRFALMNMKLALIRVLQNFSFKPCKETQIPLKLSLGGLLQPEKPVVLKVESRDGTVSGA

menin-MLL interaction [6] = biological target: T1, menin-MLL interaction; parameters: method as in PMID 31253180; settings: read-out: Potency IC50 Menin-MLL binding; TR-FRET; previously reported; cited from earlier work
KYSE-150 xenograft = KYSE-150 xenograft efficacy; type: in vivo, mice; settings: 120 mg/kg QD p.o.
Protocol: Tumor cells were injected subcutaneously into the flanks of 6- to 9-week old animals. Efficacy studies in xenograft models were performed at Bayer or EPO GmbH (Berlin-Buch, Germany) using NMRI nu/nu, SCID, BALB/c Nude female mice or SCID male mice (VCaP tumors). All animal studies were conducted in accordance with the animal welfare laws and were approved by the State Office for Health and Social Affairs Berlin (LAGeSo). Experiments were run under the animal license B3600a0007. Compound treatment started at a predefined tumor size or burden or at a predefined day after cell inoculation. BAY-155 was administered orally (p.o.) at various doses and regorafenib, tamoxifen and enzalutamide (resuspended in PEG400/H2O 6/4 or PEG400/EtOH 9/1) were used as control treatment for RKO, MCF7 and VCaP xenografts, respectively. Subcutaneous tumor volumes were determined by caliper measurement.

Question: With Cc1c(CN2CCC3(CC2)CN(c2ncnc4sc(CC(F)(F)F)cc24)C3)ccc2c1cc(C#N)n2CC(N)=O [BAY-155] as the compound, how does the “FKBP5 and TMPRSS2 expression ex vivo” value [1] read?
Answer: Its value is “no significant changes”.

Question: What about the “number of tested proteins inhibited by ≥ 50%” value [2] of the same compound?
Answer: Its value is 7.

Question: And the “cases in which an IC50 value could be reached” value ([2]; of 77 targets)?
Answer: The value was 7/77.

Question: And the “CD11b and MNDA gene expression” value [3]?
Answer: The value was “up-regulation”.

Question: What about the MEIS1 gene expression [3] of the same compound?
Answer: Its MEIS1 gene expression is “stronger expression down-regulation”.

Question: What about the “Caco2 permeability Papp(A-B)” value ([4]; Caco-2, pH 7.2) of the same compound?
Answer: The value was 2.64 ×10⁻⁶ cm/s.

Question: And the “Caco2 permeability efflux ratio” value ([4]; Caco-2)?
Answer: Its value is 6.4.

Question: And the “fold better inhibitory IC50 compared to MI-503” value (menin-MLL interaction [5])?
Answer: The value was 10 fold.

Question: And the IC50 (CYP 1A2)?
Answer: Its IC50 is greater than 20 µM.

Question: And the IC50 (CYP 3A4)?
Answer: Its IC50 is greater than 20 µM.

Question: What about the IC50 (menin-MLL interaction [6]) of the same compound?
Answer: Its IC50 is 0.008 µM.

Question: What about the “tumor volume T/C” value (KYSE-150 xenograft) of the same compound?
Answer: Its value is 0.67.

Question: What about the tumor weight (KYSE-150 xenograft) of the same compound?
Answer: Its tumor weight is “significant decrease in tumor weight”.
